Source: the OPERA property sets (Mansouri et al. 2018)

| logP | SMILES |
| --- | --- |
| 2.17 | CC(C)COC1(c2ccccc2)CN(C)CCO1 (centres undefined) |
| 2.27 | CCOC1(c2ccccc2)OCCN(C)C1C (centres undefined) |
| 1.87 | C#CCOC1(c2ccccc2)CN(C)CCO1 (centres undefined) |
| 2.13 | CCCOC1(c2ccccc2)CN(C)CCO1 (centres undefined) |
| 2.09 | C=CCOC1(c2ccccc2)CN(C)CCO1 (centres undefined) |
| 0.99 | CN1CCOC(O)C1c1ccccc1 (centres undefined) |
| 1.87 | CC1C(c2ccccc2)OC(O)(c2ccccc2)CN1C (centres undefined) |
| 2.23 | CCCCOC1(c2ccccc2)CN(C)CCO1 (centres undefined) |
| 2.23 | CCOC1(c2ccccc2)CN(C)CC(C)O1 (centres undefined) |

| SMILES | logP |
| --- | --- |
| CC1N(C)CCOC1(O)c1ccccc1 (centres undefined) | 1.92 |
| CN1CCOC(O)(c2ccccc2)C1 (centres undefined) | 1.54 |
| CN1CCOC(O)(c2cccc(C(F)(F)F)c2)C1 (centres undefined) | 1.39 |
| CC1CN(C)CC(O)(c2ccccc2)O1 (centres undefined) | 1.79 |
| CN1CCOC(O)(c2ccc(Br)cc2)C1 (centres undefined) | 1.57 |
